Test [1] relates to Myotonic Dystrophy 1 affected patient fibroblasts (Coriel GM04602; 1600 CTG repeats). Kind of test: DM1 foci reduction assay (EC50 assay; CAG10-Cy3 FISH, foci per nucleus). In kind it is cell-based. Particulars: Homo sapiens, Fibroblast; DM1 patient fibroblasts, 48 h treatment, foci per nucleus; read-out: DM1 EC50, 48 h. The method in brief: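 Foci per nucleus counted by 20× imaging of 4 areas per well, after overnight FISH with 5 nM CAG10-Cy3 and DAPI staining of fixed, permeabilized cells. DM1 fibroblasts (GM04602, 1600 CTG) were dosed 48 h at 37 °C, 8 points, 3-fold dilutions, 3 μM top concentration.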

For another test, the system named is F35T cells. As to the kind of experiment: Foci reduction in FECD (CAG10-Cy3 FISH, foci per nucleus). It counts as cell-based. Conditions: F35T cells, 48 h treatment, foci per nucleus; read-out: FECD EC50, 48 h. The method, boiled down:
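Foci per nucleus were counted by imaging after overnight CAG10-Cy3 FISH at 37 °C (30% formamide, 2×SSC) with DAPI counterstain, on PFA-fixed, ethanol-permeabilized F35T cells. The cells, seeded at 5000 per well in supplemented Opti-MEM, had received 8-point compound dilutions for 48 h at 37 °C.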

Molecules are shown by their SMILES.

On to `Cn1cc(NC(=O)c2nc(NC(=O)CCNC(=O)c3cc(NC(=O)c4nccn4C)cn3C)cn2C)cc1C(=O)NCCCC(=O)Nc1cn(C)c(C(=O)NCCC(=O)Nc2cc(C(=O)Nc3cn(C)c(C(=O)NCCC(=O)NCCOCCN4CCC(C#CC#CC5CCN(C(=O)OC(C)(C)C)CC5)CC4)n3)n(C)c2)n1` [Compound B-19], for which the 50% effective concentration (EC50) is below 100 nM in test [1] and 100 to 500 nM in the test on F35T cells.
Turning to `CCCNC(=O)CCNC(=O)c1nc(NC(=O)c2cc(NC(=O)CCNC(=O)c3nc(NC(=O)CCCNC(=O)c4cc(NC(=O)c5nc(NC(=O)CCNC(=O)c6cc(NC(=O)c7nccn7C)cn6C)cn5C)cn4CCOCCNC(=O)OC(C)(C)C)cn3C)cn2C)cn1C` [Compound B-372], the concentration giving a half-maximal response (EC50) (in test [1]; in the test with F35T cells) was below 100 nM each time.
`Cn1cc(NC(=O)c2nc(NC(=O)CCNC(=O)c3cc(NC(=O)c4nccn4C)cn3C)cn2C)cc1C(=O)NCCCC(=O)Nc1cn(C)c(C(=O)NCCC(=O)Nc2cc(C(=O)Nc3cn(C)c(C(=O)NCCC(=O)N4CCC(N5CCNCC5)CC4)n3)n(C)c2)n1` [Compound B-31]: the concentration giving a half-maximal response (EC50) in test [1] was below 100 nM; with F35T cells, 100 to 500 nM.
In the same order, the values of `CN(C)Cc1ncc(C2CN(C(=O)CCNC(=O)c3nc(NC(=O)c4cc(NC(=O)CCNC(=O)c5nc(NC(=O)CCCNC(=O)c6cc(NC(=O)c7nc(NC(=O)CCNC(=O)c8cc(NC(=O)c9nccn9C)cn8C)cn7C)cn6C)cn5C)cn4C)cn3C)C2)[nH]1` [Compound B-69] are 100 to 500 nM and 100 to 500 nM.
The matching figures for `CN(CCCN)CCCNC(=O)c1nc(NC(=O)c2cc(NC(=O)CCNC(=O)c3nc(NC(=O)CCCNC(=O)c4cc(NC(=O)c5nc(NC(=O)CCNC(=O)c6cc(NC(=O)c7nccn7C)cn6C)cn5C)cn4CCCCCCN=[N+]=[N-])cn3C)cn2C)cn1C` [Compound B-364]: 100 to 500 nM and above 1000 nM.
In the same order, the values of `CCN(CC)CCCC[C@H](NC(C)=O)C(=O)Nc1ccc(OCCOCCOCCNC(=O)CCNC(=O)c2nc(NC(=O)c3cc(NC(=O)CCNC(=O)c4nc(NC(=O)CCCNC(=O)c5cc(NC(=O)c6nc(NC(=O)CCNC(=O)c7cc(NC(=O)c8nccn8C)cn7C)cn6C)cn5C)cn4C)cn3C)cn2C)cc1` [Compound B-147] are 100 to 500 nM and 100 to 500 nM.
For the compound `Cn1cc(NC(=O)c2nc(NC(=O)CCNC(=O)c3cc(NC(=O)c4nccn4C)cn3C)cn2C)cc1C(=O)NCCCC(=O)Nc1cn(C)c(C(=O)NCCC(=O)Nc2cc(C(=O)Nc3cn(C)c(C(=O)NCCCOCOP(=O)(O)O)n3)n(C)c2)n1` [Compound B-332], the concentration giving a half-maximal response (EC50) is 100 to 500 nM in test [1] and below 100 nM in the test on F35T cells.
In the same order, the values of `C=C(NCCC(=O)Nc1cc(C(=O)Nc2cn(C)c(C(=O)NCCC(=O)NCCC)n2)n(C)c1)c1nc(NC(=O)CCCNC(=O)c2cc(NC(=O)c3nc(NC(=O)CCNC(=O)c4cc(NC(=O)c5nccn5C)cn4C)cn3C)cn2CCCn2cc(COCCOCCOCCOC)nn2)cn1C` [Compound B-401] are 100 to 500 nM and below 100 nM.
The matching figures for `Cn1cc(NC(=O)c2nc(NC(=O)CCNC(=O)c3cc(NC(=O)c4nccn4C)cn3C)cn2C)cc1C(=O)NCCCC(=O)Nc1cn(C)c(C(=O)NCCC(=O)Nc2cc(C(=O)Nc3cn(C)c(C(=O)NCCC(=O)NCCOCCOCCOCCOCCN4CCN(C5CCN(C(=O)OCc6ccccc6)CC5)CC4)n3)n(C)c2)n1` [Compound B-21]: 100 to 500 nM and 100 to 500 nM.
The matching figures for `CN1CCN(CCCNC(=O)CCNC(=O)c2nc(NC(=O)c3cc(NC(=O)CCNC(=O)c4nc(NC(=O)CCCNC(=O)c5cc(NC(=O)c6nc(NC(=O)CCNC(=O)c7cc(NC(=O)c8nccn8C)cn7C)cn6C)cn5C)cn4C)cn3C)cn2C)CC1` [Compound B-36]: 100 to 500 nM and 100 to 500 nM.
Take `CC(Nc1cc(C(=O)NCCC(=O)Nc2cn(C)c(C(=O)Nc3cc(C(=O)NCCCC(=O)Nc4cn(C)c(C(=O)Nc5cc(C(=O)NCCC(=O)Nc6cn(C)c(C(=O)NCCC(=O)NCCCCN=[N+]=[N-])n6)n(C)c5)n4)n(C)c3)n2)n(C)c1)c1nccn1C` (stereo not shown) [Compound B-75]: the EC50 in test [1] was 500 to 1000 nM; with F35T cells it was above 1000 nM.
In the same order, the values of `CCOC(=O)c1nc(NC(=O)c2cc(NC(=O)CCNC(=O)c3nc(NC(=O)CCCNC(=O)c4cc(NC(=O)c5nc(NC(=O)CCNC(=O)c6cc(NC(=O)c7nccn7C)cn6C)cn5C)cn4CCCCCCN=[N+]=[N-])cn3C)cn2C)c[nH]1` [Compound B-373] are above 1000 nM and above 1000 nM.
In the same order, the values of `Cn1cc(NC(=O)c2nc(NC(=O)CCNC(=O)c3cc(NC(=O)c4nccn4C)cn3C)cn2C)cc1C(=O)NCCCC(=O)Nc1cn(C)c(C(=O)NCCC(=O)Nc2cc(C(=O)Nc3cn(C)c(C(=O)NCCC(=O)N4CCN(C5CCNCC5)CC4)n3)n(C)c2)n1` [Compound B-117] are 100 to 500 nM and 500 to 1000 nM.
For `CC(=O)N1CCC(C#CC#CC2CCN(C(=O)CCNC(=O)c3nc(NC(=O)c4cc(NC(=O)CCNC(=O)c5nc(NC(=O)CCCNC(=O)c6cc(NC(=O)c7nc(NC(=O)CCNC(=O)c8cc(NC(=O)c9nccn9C)cn8C)cn7C)cn6C)cn5C)cn4C)cn3C)CC2)CC1` [Compound B-379], the EC50 was 100 to 500 nM in test [1] and below 100 nM with F35T cells.
Take `CC(=O)NCCn1cc(NC(=O)c2nc(NC(=O)CCNC(=O)c3cc(NC(=O)c4nccn4C)cn3C)cn2C)cc1C(=O)NCCCC(=O)Nc1cn(C)c(C(=O)NCCC(=O)Nc2cc(C(=O)Nc3cn(C)c(C(=O)NCCC(=O)N4CCC(C#CC#CC5CCNCC5)CC4)n3)n(C)c2)n1` [Compound B-270]: the values for the EC50 (in test [1]; in the test with F35T cells) were above 1000 nM and 500 to 1000 nM, respectively.
In the case of `CCCNC(=O)CCNC(=O)c1nc(NC(=O)c2cc(NC(=O)CCNC(=O)c3nc(NC(=O)CCCNC(=O)c4cc(NC(=O)c5nc(NC(=O)CCNC(=O)c6cc(NC(=O)c7nccn7C)cn6C)cn5C)cn4CCOCCN)cn3C)cn2C)cn1C` [Compound B-295], the EC50 (in test [1]; with F35T cells) was 100 to 500 nM each time.
As for `CCOC(=O)CCNC(=O)c1nc(NC(=O)c2cc(NC(=O)CCNC(=O)c3nc(NC(=O)CCCNC(=O)c4cc(NC(=O)c5nc(NC(=O)CCNC(=O)c6cc(NC(=O)c7nccn7C)cn6C)cn5C)c[nH]4)cn3C)cn2C)cn1C` [Compound B-395], the EC50 in test [1] was 500 to 1000 nM; in the test with F35T cells it was 100 to 500 nM.
In the same order, the values of `CCN(CC)CCCC[C@H](NC(=O)C1CCNCC1)C(=O)NCCOCCOCCOCCOCCOCCNC(=O)CCNC(=O)c1nc(NC(=O)c2cc(NC(=O)CCNC(=O)c3nc(NC(=O)CCCNC(=O)c4cc(NC(=O)c5nc(NC(=O)CCNC(=O)c6cc(NC(=O)c7nccn7C)cn6C)cn5C)cn4C)cn3C)cn2C)cn1C` [Compound B-95] are 500 to 1000 nM and above 1000 nM.
In the same order, the values of `Cn1cc(NC(=O)c2nc(NC(=O)CCNC(=O)c3cc(NC(=O)c4nccn4C)cn3C)cn2C)cc1C(=O)NCCCC(=O)Nc1cn(C)c(C(=O)NCCC(=O)Nc2cc(C(=O)Nc3cn(C)c(C(=O)NCCC(=O)NCCCCC#N)n3)n(C)c2)n1` [Compound B-113] are below 100 nM and below 100 nM.
In the same order, the values of `Cn1cc(NC(=O)c2nc(NC(=O)CCNC(=O)c3cc(NC(=O)c4nccn4C)cn3C)cn2C)cc1C(=O)NCCCC(=O)Nc1cn(C)c(C(=O)NCCC(=O)Nc2cc(C(=O)Nc3cn(C)c(C(=O)NCCC(=O)NC(CO)CO)n3)n(C)c2)n1` [Compound B-333] are 500 to 1000 nM and 100 to 500 nM.

For orientation: EC50 means the concentration at which the effect is half-maximal.

For the origin of these results see patent publication US20250368628A1, “METHODS AND COMPOUNDS FOR MODULATING INHERITED GENETIC DISEASES” (Design Therapeutics, Inc., priority 2022, published 2025).
